Data: US9796713B2, “Tricyclic compounds as alpha-7 nicotinic acetylcholine receptor ligands” (BRISTOL-MYERS SQUIBB COMPANY, priority 2014, dated 2017)
Like-named read-outs stand apart in the source and are kept apart here.

Target: T1, α7-HI (Rattus norvegicus, UniProt Q05941)
T1 construct: expressed in transfected cells
Assay: FLIPR Ca2+-sensitive fluorescence assay, α7-HI (agonist activity) in HEK 293 cells
Type: cell-based
Description: I) α7 Nicotinic Acetycholine Receptor Binding. Membranes were prepared for binding using HEK293 cells stably expressing the rat α7 nicotinic acetycholine receptor (rat α7 nAChR). Cells were homogenized at 4° C. in hypotonic lysis buffer consisting of 10 mM Tris (pH 7.4), 5 mM EDTA and protease inhibitors and centrifuged at 32000×g for 20 minutes. The pellet was washed once in membrane wash buffer consisting of 50 mM Tris (pH 7.4), 1 mM EDTA and protease inhibitors and centrifuged at 32000×g for 20 minutes. This pellet was then resuspended in assay buffer consisting 50 mM KH2PO4 (pH 7.4 at 25° C.), 1 mM EDTA, 0.005% Triton-X 100 and 0.1% (v/v) Sigma Protease Inhibitor Cocktail. Aliquots were then frozen in dry ice/ethanol and kept at −80° C. until the day of the assay. II) A Ca^2+-Sensitive, Fluorescence-Based Assay α-7 for Nicotinic Acetylcholine Receptor Channel Function in Mammalian Cells (“FLIPR”). Summary: Lead compounds are evaluated for agonist activity at α-7, α3β4, α4αβ2, and α1β1δ1ε sub-types of nicotinic ACh receptor ion channels expressed in mammalian HEK 293 cells. Agonist potency and efficacy values are determined from kinetic fluorescence Ca^2+ influx measurements made using a 384 well FLIPR (Fluorescence Image Plate Reader). […] In this assay, channel expressing HEK cell lines seeded in 384 well assay plates are loaded with a membrane permeant fluorescent Ca^2+ indicator dye, whose 510 nm green emission signal increases in response to elevation of intracellular Ca^2+ concentration. The basal fluorescence from the cells is monitored in real time, followed by the acute addition of test compounds.
Materials and Methods: Reagents: The acetomethoxy (AM) ester of the Ca^2+ indicator dye Fluo-4 was obtained from InVitrogen, (Carlsbad, Calif.). Acetylcholine and all buffer constituents were purchased from Sigma Chemical Company, St. Louis, Mo. G418 and Minimal Essential Medium were purchased from InVitrogen Life Technologies, Carlsbad, Calif. Fetal bovine serum was purchased from (InVitrogen, Carlsbad, Calif.).
Cell Culture: HEK-293 cells were grown in Minimal Essential Medium containing 10% (v/v) fetal bovine serum at 37° C. in a 5% CO2 incubator. HEK-293 cells stably expressing the ion channels were grown in the same medium with the addition of 500 μg/ml G418.
Ca^2+ flux assays of Ca^2+ channels expressed in HEK-293 cells: HEK-293 cells expressing the ion channels of interest were plated in 384 well, black-walled, clear-bottomed, poly-D-lysine coated plates at a density of ˜20,000 cells/well in 20 μl of Minimal Essential Medium containing 10% (v/v) fetal bovine serum and incubated for 2 days at 29° C. in a 5% CO2 incubator. Prior to assay, cells were loaded with the Fluo-4 AM ester. […] Dye loading was allowed to proceed for 90 minutes at room temperature at which time the dye loading solution was removed and replaced with 40 μl/well of Hanks buffer. Cells loaded with dye were loaded onto a FLIPR384 (Molecular Devices, Sunnyvale, Calif.). Fluo-4 dye was excited using the 488 nm line of an argon laser. Emission was filtered using a 540+/−30 nm bandpass filter. For evaluation of the effects of test compounds using the Ca^2+ flux assay, compounds to be tested were provided in assay ready plates. For nicotinic receptor ion channel expressing cells, the assay was initiated by the addition of 20 μl/well of Hanks buffer containing test compounds. For all assays, data were collected at 1 Hz for 10 seconds (baseline), at which time the compound containing stimulus buffers are added, and further measurements collected at 0.33 Hz for 3 min.
Data Analysis: The statistical robustness of the nicotinic receptor Ca^2+ flux assays is determined from blanks and totals wells. […] The raw fluorescence units data files generated on the FLIPR plate reader are automatically exported and processed by in-house data analysis tools.

[1] = Table 4, Ca2+ flux, HEK-293 cells expressing the channel, read-out: FLIPR α7-HI (EC50)

T1 sequence (Q05941 23-502): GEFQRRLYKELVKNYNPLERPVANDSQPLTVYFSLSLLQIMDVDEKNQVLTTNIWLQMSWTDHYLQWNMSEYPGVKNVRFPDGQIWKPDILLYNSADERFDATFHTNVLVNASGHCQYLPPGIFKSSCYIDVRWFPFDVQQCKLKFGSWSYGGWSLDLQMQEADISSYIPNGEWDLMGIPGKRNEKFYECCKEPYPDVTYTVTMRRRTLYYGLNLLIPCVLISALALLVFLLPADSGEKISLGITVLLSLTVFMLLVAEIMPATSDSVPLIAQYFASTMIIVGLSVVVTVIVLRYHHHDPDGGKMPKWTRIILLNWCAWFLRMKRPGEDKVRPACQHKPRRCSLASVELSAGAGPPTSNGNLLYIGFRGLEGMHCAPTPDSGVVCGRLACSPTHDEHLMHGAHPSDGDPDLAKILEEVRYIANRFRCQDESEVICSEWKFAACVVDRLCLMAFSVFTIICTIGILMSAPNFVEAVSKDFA

`Cc1ccc2c(C(=O)N3C4CC5CN(CCC53)C4)n[nH]c2c1` (stereo not drawn) [Example 49, ((2S*,3aR*,5R*,7aS*)-(6-methyl-1H-indazol-3-yl)(hexahydro-2,5-methanopyrrolo[3,2-c]pyridin-1(6H)-yl)methanone] gave an EC50 [1] of 4.2 nM.
For `O=C(c1n[nH]c2ccc(Cl)cc12)N1C2CC3CN(CCC31)C2` (stereo not drawn) [Example 40, ((2S*,3aR*,5R*,7aS*)-(5-chloro-1H-indazol-3-yl)(hexahydro-2,5-methanopyrrolo[3,2-c]pyridin-1(6H)-yl)methanone], the EC50 [1] was 79 nM.
Compound `O=C(c1n[nH]c2ccccc12)N1[C@H]2C[C@@H]3C[N@@](CC[C@@H]31)C2` (single isomer, unassigned) [Example 34a] has an EC50 [1] of 7.5 nM.
`O=C(c1ccc(Cl)cc1)N1C2CC3CN(CCC31)C2` (stereo not drawn) [Example 36, ((2S*,3aR*,5R*,7aS*)-(4-chlorophenyl)(hexahydro-2,5-methanopyrrolo[3,2-c]pyridin-1(6H)-yl)methanone] was tested, and the EC50 [1] was > 100000 nM.
Work on `Cc1ccc2c(C(=O)N3[C@@H]4C[C@H]5C[N@](CC[C@H]53)C4)n[nH]c2c1` [Example 49b, (2R,3aS,5S,7aR)-(6-methyl-1H-indazol-3-yl)(hexahydro-2,5-methanopyrrolo[3,2-c]pyridin-1(6H)-yl)methanone] yielded an EC50 [1] of 47 nM.
With `O=C(c1n[nH]c2ccccc12)N1[C@@H]2C[C@H]3C[N@](CC[C@H]31)C2` [Example 34b, ((2R,3aS,5S,7aR)-hexahydro-2,5-methanopyrrolo[3,2-c]pyridin-1(6H)-yl)(1H-indazol-3-yl)methanone] the EC50 was 250 nM.
In the case of `Cn1nc(C(=O)N2C3CC4CN(CCC42)C3)c2ccccc21` (stereo not drawn) [Example 37, ((2S*,3aR*,5R*,7aS*)-(hexahydro-2,5-methanopyrrolo[3,2-c]pyridin-1(6H)-yl)(1-methyl-1H-indazol-3-yl)methanone], the EC50 [1] is reported as > 100000 nM.
For `Cn1cc(C(=O)N2C3CC4CN(CCC42)C3)c2ccccc21` (stereo not drawn) [Example 39, ((2S*,3aR*,5R*,7aS*)-(hexahydro-2,5-methanopyrrolo[3,2-c]pyridin-1(6H)-yl)(1-methyl-1H-indol-3-yl)methanone], the EC50 [1] was > 100000 nM.
`O=C(c1cc2cccc(Cl)c2s1)N1C2CC3CN(CCC31)C2` (stereo not drawn) [Example 35, ((2S*,3aR*,5R*,7aS*)-(7-chloro-benzo[b]thiophen-2-yl)(hexahydro-2,5-methanopyrrolo[3,2-c]pyridin-1(6H)-yl)methanone] was tested, and the EC50 [1] was 5600 nM.
For `Cc1ccc2c(C(=O)N3[C@H]4C[C@@H]5C[N@@](CC[C@@H]53)C4)n[nH]c2c1` [Example 49a, (2S,3aR,5R,7aS)-(6-methyl-1H-indazol-3-yl)(hexahydro-2,5-methanopyrrolo[3,2-c]pyridin-1(6H)-yl)methanone], the EC50 [1] was 3.1 nM.
